Measurements published in article PMC2074590 (British Journal of Cancer, 1996).
“Also recorded” adds a separate entry of the source. Where two headings read alike, the source gives them in different places.

Tests used:
endometrium = assay: Endometrial assessment (transabdominal ultrasound thickness, histology); type: in vivo, human
Protocol: (§1) Bridsh Journal of Cancer (1996) 74, 300-308 ? […] The agent was administered as a monthly depot intramuscular injection. […] The study was approved by the ethics committees of each clinical centre. Patients were eligible for the study if they were post- menopausal and age less than 81 years, with histologically verified breast cancer. […] Patients were excluded if they had serious intercurrent disease, a WHO performance status of greater than 2, and a life expectancy of less than 3 months or had received previous cytotoxic chemotherapy for advanced breast cancer. […] Patients 5-19 received 250 mg month-1 i.m. from the outset. […] Tumour response to therapy was evaluated according to UICC criteria (Hayward et al., 1977). […] Body weight was recorded at each monthly review in the majority of patients. […] The study limit of quantification was 0.68 ng ml-'. […] Gonadotrophins follicle-stimulating hormone and lutenising hormone (FSH and LH) and SHBG were measured by RIA in the Regional Radioimmunoassay Laboratory of the University Hospital of South Manchester. Prolactin was measured by immunoradiometric assay using reagents supplied by Netria. Total cholesterol levels were determined enzymatically using a commercially available reagent (Diamed, Switzerland). […] Serum levels of LDL cholesterol were calculated using the Friedewald equation (Friedewald et al., 1972). […]

[1] = test system: Ki67, ER, PgR, pS2 in primary breast cancer; conditions: short-acting propylene glycol-based formulation, daily i.m. for 1 week before surgery, ref DeFriend et al., 1994b, Nicholson et al.; cited from earlier work
[2] = test system: total cholesterol, LDL cholesterol, HDL cholesterol, triglyceride; assay: Serum lipid levels during treatment; type: in vivo, human; conditions: 12 patients
Protocol: as §1

[3] = test system: serum FSH, LH, prolactin, SHBG; assay: Serum FSH, LH, prolactin and SHBG before and during treatment; type: in vivo, human
Protocol: (§2) Bridsh Journal of Cancer (1996) 74, 300-308 ? […] The agent was administered as a monthly depot intramuscular injection. […] The study was approved by the ethics committees of each clinical centre. Patients were eligible for the study if they were post- menopausal and age less than 81 years, with histologically verified breast cancer. […] Patients were excluded if they had serious intercurrent disease, a WHO performance status of greater than 2, and a life expectancy of less than 3 months or had received previous cytotoxic chemotherapy for advanced breast cancer. […] Patients 5-19 received 250 mg month-1 i.m. from the outset. […] Tumour response to therapy was evaluated according to UICC criteria (Hayward et al., 1977). To qualify for the 'no change' category, tumour growth had to stabilise for more than 6 months (Howell et al., 1988; Robertson et al., 1989). Body weight was recorded at each monthly review in the majority of patients. […] The procedure was applied after solid base clean up of a diethyl ether/hexane extract of serum. The study limit of quantification was 0.68 ng ml-'. […] Gonadotrophins follicle-stimulating hormone and lutenising hormone (FSH and LH) and SHBG were measured by RIA in the Regional Radioimmunoassay Laboratory of the University Hospital of South Manchester. Prolactin was measured by immunoradiometric assay using reagents supplied by Netria. Total cholesterol levels were determined enzymatically using a commercially available reagent (Diamed, Switzerland). Triglyceride levels were determined by the glyceryl phosphate oxidase-peroxidase-antiperox- idase method using a commercially available kit (Boehringer Mannheim, Germany). High-density lipoprotein (HDL) cholesterol levels were measured after pretreatment of the serum samples with buffered magnesium phosphotungstate, which selectively precipitates low-density lipoprotein (LDL) cholesterol, very low-density lipoprotein (VLDL) cholesterol and chylomicrons, leaving HDL cholesterol in the super- natant. Serum levels of LDL cholesterol were calculated using the Friedewald equation (Friedewald et al., 1972). Endometrial assessment Endometrial thickness was measured in transverse section by transabdominal ultrasound using a Siemens Sonoline SL2 with a 3.5 MHz sector probe. Baseline and repeat scans at 3-6 monthly intervals were performed in five patients. […] Pharmacokinectic data were analysed using para- metric statistics. Data relating to body weight, serum gonadotrophin, SHBG and lipid levels were analysed using non-parametric statistics. The null hypothesis was rejected at a probability level of P<0.05. […] However, samples were not available between day 2 and day 8.

[4] = Serum concentrations of ICI 182780 by radioimmunoassay (pharmacokinetics of monthly i.m. depot); type: in vivo, human; conditions: for Cmax: human, serum
Protocol: as §2

[5] = 250 mg monthly i.m., first month
[6] = 250 mg monthly i.m., sixth month

## C[C@]12CC[C@@H]3c4ccc(O)cc4C[C@@H](CCCCCCCCC[S+]([O-])CCCC(F)(F)C(F)(F)F)[C@H]3[C@@H]1CC[C@@H]2O (stereo partly shown) [ICI 182780, 7a-[9(4,4,5,5,pentafluoropentyl-sulphinyl)nonyl]oestra-1 ,3,5,(10)-triene-3,17,B-diol]
endometrium; one patient, hysterectomy after 18 months on treatment
  Endometrial histology: atrophic post-menopausal pattern with cystic change
endometrium; serial ultrasound in five responding patients, up to 15 months
  Endometrial thickness / effect on endometrium: no apparent effect; also recorded: remained unchanged
[1]
  Expression of ER, PgR and pS2 vs pretreatment samples: reduced or absent expression
  Tumour proliferation (Ki67 expression) vs pretreatment samples: reduced proliferation
[2]
  Change in serum lipids (total cholesterol, LDL cholesterol, HDL cholesterol, triglyceride): no significant changes
[3]; after 8 months of treatment, median pretreatment 100, P=NS
  Serum SHBG, median level: 55 nM
[3]; first 3 months of administration, median pre-treatment 26, P<0.005
  Serum LH, median post-treatment value: 42 IU 1-1
[3]; first 3 months of administration, median pre-treatment 26, P<0.05
  Serum FSH, median post-treatment value: 52 IU l-1
[3]; in vivo
  Change in serum SHBG: no significant changes; also recorded: overall trend to decrease
  Change in serum gonadotrophin levels after the first 3 months: no further significant overall changes
[3]; throughout the treatment period
  Change in serum prolactin: no significant changes; also recorded: did not change significantly
[4]; [5]
  AUC, first month: 140.5 ng·days/mL
  Mean end-of-month concentration, first month: 3.1 ng/mL
[4]; [6]
  AUC, sixth month: 206.8 ng·days/mL
  Mean end-of-month concentration, sixth month: 5.6 ng/mL
[4]; after 6 months of treatment
  Difference in Cmax and AUC, partial response vs no change patients: no significant difference
[4]; after 6 months vs month 1
  Increase in AUC: 50%
  Increase in mean end of month drug levels: 80%
[4]; female, im, 250 mg, 250 mg monthly i.m., first month, read-out: Cmax, first month (mean)
  Cmax: 10.5 ng/mL
[4]; female, im, 250 mg, 250 mg monthly i.m., sixth month, read-out: Cmax, sixth month (mean)
  Cmax: 12.6 ng/mL
[4]; female, intramuscular, no change patients, read-out: Median Cmax at month 6
  Cmax: 12.8 ng/mL
[4]; female, intramuscular, no change patients, read-out: Median Cmax on entry
  Cmax: 9.3 ng/mL
[4]; female, intramuscular, partial response patients, read-out: Median Cmax at month 6
  Cmax: 11 ng/mL
[4]; female, intramuscular, partial response patients, read-out: Median Cmax on entry
  Cmax: 7.7 ng/mL
[4]; female, intramuscular, progressive disease patients, read-out: Median Cmax on entry
  Cmax: 5.6 ng/mL
[4]; following both the 100 mg and 250 mg doses
  Release of drug from slow release formulation: continuous release of drug
[4]; intramuscular, 100 mg, patient 1 (progressive disease), 100 mg dose at entry, read-out: Cmax on entry
  Cmax: 4.4 ng/mL
[4]; intramuscular, 100 mg, patient 2 (no change), 100 mg dose at entry, read-out: Cmax on entry
  Cmax: 1.8 ng/mL
[4]; intramuscular, 100 mg, patient 3 (partial response), 100 mg dose at entry, read-out: Cmax on entry
  Cmax: 2.9 ng/mL
[4]; intramuscular, 100 mg, patient 4 (progressive disease), 100 mg dose at entry, read-out: Cmax on entry
  Cmax: 1.6 ng/mL
[4]; intramuscular, 250 mg, patient 2 (no change), 250 mg, read-out: Cmax at month 6
  Cmax: 7.5 ng/mL
[4]; intramuscular, 250 mg, patient 3 (partial response), 250 mg, read-out: Cmax at month 6
  Cmax: 9.9 ng/mL
[4]; intramuscular, 250 mg, patient 5 (partial response), 250 mg, read-out: Cmax at month 6
  Cmax: 17.6 ng/mL
[4]; intramuscular, 250 mg, patient 5 (partial response), 250 mg, read-out: Cmax on entry
  Cmax: 17.4 ng/mL
[4]; intramuscular, 250 mg, patient 6 (partial response), 250 mg, read-out: Cmax on entry
  Cmax: 7.7 ng/mL
[4]; intramuscular, 250 mg, patient 7 (progressive disease), 250 mg, read-out: Cmax on entry
  Cmax: 5.5 ng/mL
[4]; intramuscular, 250 mg, patient 8 (partial response), 250 mg, read-out: Cmax at month 6
  Cmax: 10 ng/mL
[4]; intramuscular, 250 mg, patient 8 (partial response), 250 mg, read-out: Cmax on entry
  Cmax: 5.9 ng/mL
[4]; intramuscular, 250 mg, patient 9 (progressive disease), 250 mg, read-out: Cmax on entry
  Cmax: 9.7 ng/mL
[4]; intramuscular, 250 mg, patient 10 (partial response), 250 mg, read-out: Cmax at month 6
  Cmax: 9.1 ng/mL
[4]; intramuscular, 250 mg, patient 10 (partial response), 250 mg, read-out: Cmax on entry
  Cmax: 14.8 ng/mL
[4]; intramuscular, 250 mg, patient 11 (progressive disease), 250 mg, read-out: Cmax on entry
  Cmax: 29.9 ng/mL
[4]; intramuscular, 250 mg, patient 12 (no change), 250 mg, read-out: Cmax at month 6
  Cmax: 12.2 ng/mL
[4]; intramuscular, 250 mg, patient 12 (no change), 250 mg, read-out: Cmax on entry
  Cmax: 7.2 ng/mL
[4]; intramuscular, 250 mg, patient 13 (progressive disease), 250 mg, read-out: Cmax at month 6
  Cmax: 15.8 ng/mL
[4]; intramuscular, 250 mg, patient 13 (progressive disease), 250 mg, read-out: Cmax on entry
  Cmax: 5.6 ng/mL
[4]; intramuscular, 250 mg, patient 14 (partial response), 250 mg, read-out: Cmax at month 6
  Cmax: 13.5 ng/mL
[4]; intramuscular, 250 mg, patient 14 (partial response), 250 mg, read-out: Cmax on entry
  Cmax: 9.1 ng/mL
[4]; intramuscular, 250 mg, patient 15 (no change), 250 mg, read-out: Cmax at month 6
  Cmax: 15.8 ng/mL
[4]; intramuscular, 250 mg, patient 15 (no change), 250 mg, read-out: Cmax on entry
  Cmax: 9 ng/mL
[4]; intramuscular, 250 mg, patient 16 (partial response), 250 mg, read-out: Cmax at month 6
  Cmax: 12 ng/mL
[4]; intramuscular, 250 mg, patient 16 (partial response), 250 mg, read-out: Cmax on entry
  Cmax: 4.4 ng/mL
